Results on 37 molecules are retold here after US10174029B2, “Pyrimidine-2,4-diamine derivatives for treatment of cancer” (THOMAS HELLEDAYS STIFTELSE FOR MEDICINSK FORSKNING, priority 2012, dated 2019).

Usually IC50 stands for the concentration at which inhibition is half-maximal.

The first assay has as its target MTH1 (Homo sapiens, UniProt P36639). The assay is described as follows: MTH1 enzymatic assay and IC50 value determination (malachite green). The assay is classed as biochemical. To be noted: MTH1 4.8 nM, dGTP 100 μM, 15 minutes at 22° C.; group: between 2 μM and 10 μM. Put shortly: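 Malachite green detection of Pi after coupling dGTP hydrolysis to excess E. coli pyrophosphatase; 4.8 nM MTH1, 100 μM dGTP in Tris-acetate buffer with Mg2+ and DTT, 1% DMSO, 15 min at 22 °C. 12-point 1:3 compound series; absorbance at 630 nm; IC50 by four-parameter nonlinear regression.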
Consider `CCOC(=O)CNc1cc(-c2cccc(C)c2C)nc(N)n1` [Example 396, Ethyl 2-{[2-amino-6-(2,3-dimethylphenyl)pyrimidin-4-yl]amino}acetate], for which the IC50 was 2000 to 10000 nM.
`Cc1nnc(CNc2cc(-c3cccc(C)c3C)nc(N)n2)[nH]1` [Example 399, 6-(2,3-Dimethylphenyl)-4-N-[(5-methyl-4H-1,2,4-triazol-3-yl)methyl]pyrimidine-2,4-diamine] gave an IC50 of 2000 to 10000 nM.

The assay is the same for the next values; noted with them: MTH1 4.8 nM, dGTP 100 μM, 15 minutes at 22° C.; group: less than 200 nM.
As for `COc1ccc2nc(CCNc3cc(-c4cccc(C)c4C)nc(N)n3)[nH]c2c1` [Example 351, 6-(2,3-Dimethylphenyl)-4-N-[2-(6-methoxy-1H-1,3-benzodiazol-2-yl)ethyl]pyrimidine-2,4-diamine], the IC50 was < 200 nM.
Take `Cc1cccc(-c2cc(NCCCNS(=O)(=O)c3c(C)noc3C)nc(N)n2)c1C` [Example 359, N-(3-{[2-Amino-6-(2,3-dimethylphenyl)pyrimidin-4-yl]amino}propyl)-3,5-dimethyl-1,2-oxazole-4-sulfonamide]: the IC50 was < 200 nM.
Still for that read-out and setting: next, `Cc1cccc(-c2cc(NCCCNC(=O)Nc3cc(Cl)nc(Cl)c3)nc(N)n2)c1C` [Example 361, 3-(3-{[2-Amino-6-(2,3-dimethylphenyl)pyrimidin-4-yl]amino}propyl)-1-(2,6-dichloropyridin-4-yl)urea]: < 200 nM; `CC(=O)Nc1cccc(OCCCNc2cc(-c3cccc(C)c3C)nc(N)n2)c1` [Example 363, N-[3-(3-{[2-Amino-6-(2,3-dimethylphenyl)pyrimidin-4-yl]amino}propoxy)phenyl]acetamide]: < 200 nM.
On the same count and under the same terms, next, `Cc1cccc(-c2cc(NCCCNC(=O)c3cccc(Br)c3)nc(N)n2)c1C` [Example 367, N-(3-{[2-Amino-6-(2,3-dimethylphenyl)pyrimidin-4-yl]amino}propyl)-3-bromobenzamide]: < 200 nM.
`Cc1cccc(-c2cc(NCCCNS(=O)(=O)c3cccc(C#N)c3)nc(N)n2)c1C` [Example 374, N-(3-{[2-Amino-6-(2,3-dimethylphenyl)pyrimidin-4-yl]amino}propyl)-3-cyanobenzene-1-sulfonamide]: the IC50 is < 200 nM.
Same read-out and setting: as for `Cc1cccc(-c2cc(NCCCNS(=O)(=O)c3ccccc3)nc(N)n2)c1C` [Example 376, N-(3-{[2-Amino-6-(2,3-dimethylphenyl)pyrimidin-4-yl]amino}propyl)benzenesulfonamide], the figure is < 200 nM; as for `C=CCNc1cc(-c2cccc(C)c2C)nc(N)n1` [Example 379, 6-(2,3-Dimethylphenyl)-4-N-(prop-2-en-1-yl)pyrimidine-2,4-diamine], < 200 nM.
Same read-out and setting: as for `Cc1cccc(-c2cc(NCCCNS(=O)(=O)c3cccc(F)c3)nc(N)n2)c1C` [Example 381, N-(3-{[2-Amino-6-(2,3-dimethylphenyl)pyrimidin-4-yl]amino}propyl)-3-fluorobenzene-1-sulfonamide], the figure is < 200 nM; as for `C#CCNc1cc(-c2cccc(C)c2C)nc(N)n1` [Example 386, 6-(2,3-Dimethylphenyl)-4-N-(prop-2-yn-1-yl)pyrimidine-2,4-diamine], < 200 nM.
Same read-out and setting: next, `Cc1cccc(-c2cc(NCCCNS(=O)(=O)c3c(C)nn(C)c3Cl)nc(N)n2)c1C` [Example 389, N-(3-{[2-Amino-6-(2,3-dimethylphenyl)pyrimidin-4-yl]amino}propyl)-5-chloro-1,3-dimethyl-1H-pyrazole-4-sulfonamide]: < 200 nM; `Cc1cccc(-c2cc(NCCCNS(=O)(=O)c3cn(C)c(C)n3)nc(N)n2)c1C` [Example 391, N-(3-{[2-Amino-6-(2,3-dimethylphenyl)pyrimidin-4-yl]amino}propyl)-1,2-dimethyl-1H-imidazole-4-sulfonamide]: < 200 nM.
On to `Cc1cccc(-c2cc(NCCNc3ccc(C#N)cn3)nc(N)n2)c1C` [Example 397, 6-[(2-{[2-Amino-6-(2,3-dimethylphenyl)pyrimidin-4-yl]amino}ethyl)amino]pyridine-3-carbonitrile], for which the IC50 is < 200 nM.
Still for that read-out and setting: as for `Cc1cccc(-c2cc(NCCCNS(=O)(=O)c3cccc(S(C)(=O)=O)c3)nc(N)n2)c1C` [Example 402, N-(3-{[2-Amino-6-(2,3-dimethylphenyl)pyrimidin-4-yl]amino}propyl)-3-methanesulfonylbenzene-1-sulfonamide], the figure is < 200 nM; as for `Cc1cccc(-c2cc(NCCCNS(=O)(=O)c3ccccc3S(C)(=O)=O)nc(N)n2)c1C` [Example 403, N-(3-{[2-Amino-6-(2,3-dimethylphenyl)pyrimidin-4-yl]amino}propyl)-2-methanesulfonylbenzene-1-sulfonamide], < 200 nM.
Same read-out and setting: next, `Cc1ncsc1CCNc1cc(-c2cccc(Cl)c2Cl)nc(N)n1` [Example 405, 6-(2,3-dichlorophenyl)-4-N-[2-(4-methyl-1,3-thiazol-5-yl)ethyl]pyrimidine-2,4-diamine]: < 200 nM; `Cc1ncsc1CCNc1cc(-c2cccc(Cl)c2C)nc(N)n1` [Example 406, 6-(3-chloro-2-methylphenyl)-4-N-[2-(4-methyl-1,3-thiazol-5-yl)ethyl]pyrimidine-2,4-diamine]: < 200 nM.
The same measure, in the same setting: next, `Cc1cccc(-c2cc(NCCc3c[nH]cn3)nc(N)n2)c1C` [Example 408, 6-(2,3-dimethylphenyl)-4-N-[2-(1H-imidazol-4-yl)ethyl]pyrimidine-2,4-diamine]: < 200 nM.
As for `Cc1cccc(-c2cc(NCCCc3nc4ccccc4[nH]3)nc(N)n2)c1C` [Example 409, 4-N-[3-(1H-1,3-benzodiazol-2-yl)propyl]-6-(2,3-dimethylphenyl)pyrimidine-2,4-diamine], the IC50 is < 200 nM.
Consider `Cc1cccc(-c2cc(NCc3cnc(-c4ccccc4)s3)nc(N)n2)c1C` [Example 411, 6-(2,3-dimethylphenyl)-4-N-[(2-phenyl-1,3-thiazol-5-yl)methyl]pyrimidine-2,4-diamine], for which the half-inhibitory concentration (IC50) is < 200 nM.
Same read-out and setting: as for `CN(C)S(=O)(=O)c1ccc(CCNc2cc(-c3cccc(Cl)c3Cl)nc(N)n2)cc1` [Example 415, 4-(2-{[2-amino-6-(2,3-dichlorophenyl)pyrimidin-4-yl]amino}ethyl)-N,N-dimethylbenzene-1-sulfonamide], the figure is < 200 nM; as for `Cc1cccc(-c2cc(NCCc3ccc(S(=O)(=O)N(C)C)cc3)nc(N)n2)c1C` [Example 416, 4-(2-{[2-amino-6-(2,3-dimethylphenyl)pyrimidin-4-yl]amino}ethyl)-N,N-dimethylbenzene-1-sulfonamide], < 200 nM.
Same read-out and setting: next, `Nc1nc(NC2CC2)cc(-c2ccc(Cl)c(Cl)c2Cl)n1` [Example 418, 4-N-Cyclopropyl-6-(2,3,4-trichlorophenyl)pyrimidine-2,4-diamine]: < 200 nM; `Nc1nc(NCCc2ccc(Cl)cc2)cc(-c2ccc(Cl)c(Cl)c2Cl)n1` [Example 419, 4-N-[2-(4-Chlorophenyl)ethyl]-6-(2,3,4-trichlorophenyl)pyrimidine-2,4-diamine]: < 200 nM; `[2H]C([2H])([2H])Nc1cc(-c2cccc(C)c2C)nc(N)n1` [Example 420, 6-(2,3-dimethylphenyl)-4-N—(^2H3)methylpyrimidine-2,4-diamine]: < 200 nM.
The same measure, in the same setting: as for `[2H]C([2H])([2H])Nc1cc(-c2cccc(C)c2Cl)nc(N)n1` [Example 422, 6-(2-chloro-3-methylphenyl)-4-N—(^2H3)methylpyrimidine-2,4-diamine], the figure is < 200 nM.
Regarding `Cc1cccc(-c2cc(NCCCCNS(=O)(=O)c3ccc(S(C)(=O)=O)cc3)nc(N)n2)c1C` [Example 424, N-(4-{[2-amino-6-(2,3-dimethylphenyl)pyrimidin-4-yl]amino}butyl)-4-methanesulfonylbenzene-1-sulfonamide], the IC50 is < 200 nM.
Still for that read-out and setting: as for `Cc1c(C#N)cccc1-c1cc(NCCc2ccc(S(N)(=O)=O)cc2)nc(N)n1` [Example 426, 4-(2-{[2-amino-6-(3-cyano-2-methylphenyl)pyrimidin-4-yl]amino}ethyl)benzene-1-sulfonamide], the figure is < 200 nM; as for `Cc1c(-c2cc(NCCc3ccc(S(N)(=O)=O)cc3)nc(N)n2)ccc(Cl)c1Cl` [Example 428, 4-(2-{[2-amino-6-(3,4-dichloro-2-methylphenyl)pyrimidin-4-yl]amino}ethyl)benzene-1-sulfonamide], < 200 nM; as for `C#CCNc1cc(-c2cccc(Cl)c2C)nc(N)n1` [Example 429, 6-(3-chloro-2-methylphenyl)-4-N-(prop-2-yn-1-yl)pyrimidine-2,4-diamine], < 200 nM.
In the case of `Cc1c(F)ccc(-c2cc(NCCc3ccc(S(C)(=O)=O)cc3)nc(N)n2)c1C` [Example 430, 6-(4-fluoro-2,3-dimethylphenyl)-4-N-[2-(4-methanesulfonylphenyl)ethyl]pyrimidine-2,4-diamine], the IC50 is < 200 nM.
Still for that read-out and setting: as for `Cc1cc(Cl)ccc1-c1cc(NCCc2ccc(S(N)(=O)=O)cc2)nc(N)n1` [Example 432, 4-(2-{[2-amino-6-(4-chloro-2-methylphenyl)pyrimidin-4-yl]amino}ethyl)benzene-1-sulfonamide], the figure is < 200 nM; as for `Nc1nc(NCCc2ccc(S(N)(=O)=O)cc2)cc(-c2ccc(F)c(F)c2F)n1` [Example 434, 4-(2-{[2-amino-6-(2,3,4-trifluorophenyl)pyrimidin-4-yl]amino}ethyl)benzene-1-sulfonamide], < 200 nM.
The same measure, in the same setting: as for `Cc1c(F)ccc(-c2cc(NC3CC3)nc(N)n2)c1C` [Example 436, 4-N-cyclopropyl-6-(4-fluoro-2,3-dimethylphenyl)pyrimidine-2,4-diamine], the figure is < 200 nM; as for `Cc1cc(-c2cc(NCCc3ccc(S(N)(=O)=O)cc3)nc(N)n2)c(C)cc1F` [Example 439, 4-(2-{[2-amino-6-(4-fluoro-2,5-dimethylphenyl)pyrimidin-4-yl]amino}ethyl)benzene-1-sulfonamide], < 200 nM.
